Assay results: patent EP1681292A1, “3-Amino-6-aryl(or 6-heteroaryl)-thieno¬2,3-b|pyridin-2-carboxylic acid amides, pharmaceutical compositions comprising the said and their use as inhibitors of TNFalpha release” (IBFB Pharma GmbH, priority 2005, dated 2006)

The compounds below were run on TNFα-Freisetzung (assay: Inhibition of TNFα release after LPS stimulation of human whole blood (ELISA)). Conditions: human whole blood diluted 1:5 with RPMI 1640, LPS (Salmonella abortus equi) 1 µg/ml, 24 h at 37°C, TNFα in supernatant by ELISA; read-out: Hemmung der TNFα-Freisetzung, EC50.
Format: cell-based
Source text: Methodenbeschreibung der Hemmung der TNFα Freisetzung nach LPS Stimulation von humanem Vollblut
Die Stimulierung isolierter Leukozyten für die Freisetzung von Zytokinen kann auf verschiedenen Wegen erfolgen. Lipopolysaccharide (LPS) stellen einen Stimulus für die Untersuchung der Freisetzung von TNFα dar. LPS ist Bestandteil bakterieller Zellwände und wird beim Abtöten der Bakterien (durch Antibiotika oder das natürliche Immunsystem) freigesetzt. LPS stimuliert insbesondere die Aktivität phagozytierender Leukozyten (Gewebsmakrophagen, Granulozyten, Monozyten) und verursacht die Infiltration von Leukozyten vom peripheren Blut in das betroffene Gewebe. Ein Zytokin von besonderer Bedeutung für diese Mechanismen ist TNFα, das in großen Mengen durch die betroffenen Zellen sezerniert wird. Hauptquelle dabei sind Monozyten und Makrophagen. TNFα initiiert und prolongiert den Entzündungsprozess im Zusammenspiel mit anderen Mediatoren.
Für die Untersuchung des Effektes auf die LPS-induzierte TNFα-Freisetzung wurde eine Methode verwendet, die von MARX et al. (Marx D, Tassabehji M, Heer S, Hüttenbrink KB, Szelenyi I (2002) Pulmonary Pharmacology & Therapeutics 15 7-15) beschrieben wurde. Die Methodenbeschreibung in verkürzter Darstellung: Humanes Blut verschiedener Spendern wird durch Zusatz von 10 mM Na-Citrat ungerinnbar gemacht und 1:5 mit RPMI 1640 Zellkulturmedium verdünnt. Die Verbindungen der allgemeinen Formel 1 sowie die Kontrollsubstanzen (z.B. Dexamethason) wurden den Blutproben in verschiedenen Konzentrationen hinzugefügt. 15 Minuten später wurden die Leukozyten durch Zusatz von Lipopolysacchariden (LPS) (aus Salmonella abortus equi) in einer Endkonzentration von 1 µg/ml stimuliert. Nach Inkubation der Testansätze für 24 Stunden bei 37°C. und unter 5% CO2 in wassergesättigter Luft, wurde das Blut zentrifugiert und die Konzentration an TNFα im zellfreien Überstand unter Verwendung eines käuflichen ELISA (BD Biosciences) nach Angaben des Herstellers exakt vermessen.

Structure (SMILES) | EC50
CCc1ccc(-c2cc(C(F)(F)F)c3c(N)c(C(N)=O)sc3n2)cc1 [Beispiel 15, 3-Amino-6-(4-ethyl-phenyl)-4-trifluormethyl-thieno[2,3-b]pyridin-2-carbonsäureamid] | < 5 nM
Cc1ccc(-c2cc(C(F)(F)F)c3c(N)c(C(N)=O)sc3n2)cc1C [Beispiel 18, 3-Amino-6-(3,4-dimethyl-phenyl)-4-trifluormethyl-thieno[2,3-b]pyridin-2-carbonsäureamid] | < 5 nM
CCc1cc(-c2ccc(C)cc2)nc2sc(C(N)=O)c(N)c12 [Beispiel 27, 3-Amino-4-ethyl-6-(4-methyl-phenyl)-thieno[2,3-b]pyridin-2-carbonsäureamid] | < 5 nM
NC(=O)c1sc2nc(-c3ccc4ccccc4c3)cc(C(F)(F)F)c2c1N [Beispiel 25, 3-Amino-6-(2-naphthyl)-4-trifluormethyl-thieno[2,3-b]pyridin-2-carbonsäureamid] | < 5 nM
NC(=O)c1sc2nc(-c3ccc(Br)cc3)cc(C(F)(F)F)c2c1N [Beispiel 23, 3-Amino-6-(4-brom-phenyl)-4-trifluormethyl-thieno[2,3-b]pyridin-2-carbonsäureamid] | < 5 nM
CCc1cc(-c2ccc(SC)cc2)nc2sc(C(N)=O)c(N)c12 [Beispiel 31, 3-Amino-4-ethyl-6-(4-methylthio-phenyl)-thieno[2,3-b]pyridin-2-carbonsäureamid] | < 5 nM
COc1ccc(-c2cc(C)c3c(N)c(C(N)=O)sc3n2)cc1 [Beispiel 4, 3-Amino-4-methyl-6-(4-methoxy-phenyl)-thieno[2,3-b]pyridin-2-carbonsäureamid] | < 5 nM
CCCc1ccc(-c2cc(C(F)(F)F)c3c(N)c(C(N)=O)sc3n2)cc1 [Beispiel 16, 3-Amino-6-(4-propyl-phenyl)-4-trifluormethyl-thieno[2,3-b]pyridin-2-carbonsäureamid] | < 5 nM
COc1ccc(-c2cc(C(F)(F)F)c3c(N)c(C(N)=O)sc3n2)cc1 [Beispiel 19, 3-Amino-6-(4-methoxy-phenyl)-4-trifluormethyl-thieno[2,3-b]pyridin-2-carbonsäureamid] | < 5 nM
Cc1ccc(-c2cc(C)c3c(N)c(C(N)=O)sc3n2)cc1 [Beispiel 3, 3-Amino-4-methyl-6-(4-methyl-phenyl)-thieno[2,3-b]pyridin-2-carbonsäureamid] | < 5 nM
CSc1ccc(-c2cc(C)c3c(N)c(C(N)=O)sc3n2)cc1 [3-Amino-4-methyl-6-(4-methylthio-phenyl)-thieno[2,3-b]pyridin-2-carbonsäureamid] | < 5 nM
NC(=O)c1sc2nc(-c3ccccc3)cc(C(F)(F)F)c2c1N [Beispiel 13, 3-Amino-6-phenyl-4-trifluormethyl-thieno[2,3-b]pyridin-2-carbonsäureamid] | < 5 nM
Cc1cc(-c2ccccc2)nc2sc(C(N)=O)c(N)c12 [Beispiel 8, 3-Amino-4-methyl-6-phenyl-thieno[2,3-b]pyridin-2-carbonsäureamid] | < 5 nM

Next, values leading:

EC50 | Structure (SMILES)
< 5 nM | Cc1cc(-c2ccc(Cl)cc2)nc2sc(C(N)=O)c(N)c12 [3-Amino-6-(4-chlor-phenyl)-4-methyl-thieno[2,3-b]pyridin-2-carbonsäureamid]
< 5 nM | Cc1cccc(-c2cc(C)c3c(N)c(C(N)=O)sc3n2)c1 [Beispiel 2, 3-Amino-4-methyl-6-(3-methyl-phenyl)-thieno[2,3-b]pyridin-2-carbonsäureamid]
< 5 nM | Cc1cc(-c2ccc(Br)cc2)nc2sc(C(N)=O)c(N)c12 [Beispiel 7, 3-Amino-6-(4-brom-phenyl)-4-methyl-thieno[2,3-b]pyridin-2-carbonsäureamid]
< 5 nM | Cc1ccc(-c2cc(C(F)F)c3c(N)c(C(N)=O)sc3n2)cc1 [Beispiel 11, 3-Amino-4-difluormethyl-6-(4-methyl-phenyl)-thieno[2,3-b]pyridin-2-carbonsäureamid]
< 5 nM | NC(=O)c1sc2nc(-c3ccc4c(c3)OCO4)cc(C(F)(F)F)c2c1N [Beispiel 26, 3-Amino-6-(3,4-dioxomethylen-phenyl)-4-trifluormethyl-thieno[2,3-b]pyridin-2-carbonsäureamid]
< 5 nM | Cc1ccc(-c2cc(C(F)(F)F)c3c(N)c(C(N)=O)sc3n2)cc1 [Beispiel 14, 3-Amino-6-(4-methyl-phenyl)-4-trifluormethyl-thieno[2,3-b]pyridin-2-carbonsäureamid]
< 5 nM | CCc1cc(-c2ccc(Cl)cc2)nc2sc(C(N)=O)c(N)c12 [Beispiel 30, 3-Amino-6-(4-chlor-phenyl)-4-ethyl-thieno[2,3-b]pyridin-2-carbonsäureamid]
< 5 nM | NC(=O)c1sc2nc(-c3ccc4c(c3)OCCO4)cc(C(F)(F)F)c2c1N [3-Amino-6-(3,4-dioxoethylen-phenyl)-4-trifluormethyl-thieno[2,3-b]pyridin-2-carbonsäureamid]
< 5 nM | NC(=O)c1sc2nc(-c3ccc(Cl)cc3)cc(C(F)(F)F)c2c1N [Beispiel 22, 3-Amino-6-(4-chlor-phenyl)-4-trifluormethyl-thieno[2,3-b]pyridin-2-carbonsäureamid]
< 5 nM | CCOc1ccc(-c2cc(C(F)(F)F)c3c(N)c(C(N)=O)sc3n2)cc1 [Beispiel 20, 3-Amino-6-(4-ethoxy-phenyl)-4-trifluormethyl-thieno[2,3-b]pyridin-2-carbonsäureamid]
< 5 nM | CSc1ccc(-c2cc(C(F)(F)F)c3c(N)c(C(N)=O)sc3n2)cc1 [3-Amino-6-(4-methylthio-phenyl)-4-trifluormethyl-thieno[2,3-b]pyridin-2-carbonsäureamid]
< 5 nM | Cc1cc(-c2ccc3c(c2)OCCO3)nc2sc(C(N)=O)c(N)c12 [3-Amino-6-(3,4-dioxoethylen-phenyl)-4-methyl-thieno[2,3-b]pyridin-2-carbonsäureamid]
< 5 nM | CC(C)c1ccc(-c2cc(C(F)(F)F)c3c(N)c(C(N)=O)sc3n2)cc1 [Beispiel 12, 3-Amino-6-(4-isopropyl-phenyl)-4-trifluormethyl-thieno[2,3-b]pyridin-2-carbonsäureamid]
< 5 nM | Cc1cc(-c2ccc(F)cc2)nc2sc(C(N)=O)c(N)c12 [Beispiel 6, 3-Amino-6-(4-fluor-phenyl)-4-methyl-thieno[2,3-b]pyridin-2-carbonsäureamid]
< 5 nM | Cc1cc(-c2ccc3c(c2)OCO3)nc2sc(C(N)=O)c(N)c12 [Beispiel 9, 3-Amino-6-(3,4-dioxomethylen-phenyl)-4-methyl-thieno[2,3-b]pyridin-2-carbonsäureamid]
< 5 nM | Cc1cc(-c2cccs2)nc2sc(C(N)=O)c(N)c12 [Beispiel 10, 3-Amino-4-methyl-6-(2-thienyl)-thieno[2,3-b]pyridin-2-carbonsäureamid]
< 5 nM | NC(=O)c1sc2nc(-c3cccs3)cc(C(F)(F)F)c2c1N [3-Amino-6-(2-thienyl)-4-trifluormethyl-thieno[2,3-b]pyridin-2-carbonsäureamid]
< 5 nM | NC(=O)c1sc2nc(-c3ccc(F)cc3)cc(C(F)(F)F)c2c1N [Beispiel 21, 3-Amino-6-(4-fluor-phenyl)-4-trifluormethyl-thieno[2,3-b]pyridin-2-carbonsäureamid]
